Reference: patent US20150031686A1, “PHENYL-OXAZOLYL DERIVATIVES, PREPARATION METHOD THEREOF, AND RELATED APPLICATION OF THE PHENYL-OXAZOLYL DERIVATIVES AS AN IMPDH INHIBITOR” (INSTITUTE OF MEDICINAL BIOTECHNOLOGY, CHINESE ACADEMY OF …, priority 2012, published 2015)
Converted amounts (≈) assume the structure as drawn.

Tests used:
[1] = system: Coxsackie virus type B6 (COX-B6); experiment: Anti-Coxsackie virus type B6 (COX-B6) activity, CPE in Vero cells; type: cell-based; conditions: Reed-Muench
Protocol: (§1) With Vero (African green monkey kidney) cells as viral hosts, inhibitory effects of the compounds of present invention on the grades of pathological lesions by coxsackievirus B3 (COX-B3), B6 (COX-B6) viruses in Vero cells were determined. The measured results of viral inhibitory activity of the compounds are shown in Table 3 and Table 4; wherein RBV is the control drug ribavirin. The inhibitory activities of the measured compounds against coxsackievirus B3, B6 were stronger than the control.
(§2) Screening of Anti-B3, B6 Type Coxsackie Viruses (COX-B3, COX-B6) Activity of the Samples
(§3) Prepare stock solutions of COX-B3 (or COX-B6) virus strains as well as tested compounds in DMSO before use. Before tests, dilute the stock solution with culture solution into a certain concentration and then dilute 3 times to make a total of eight dilutions. Use ribavirin (RBV) as positive control. Test procedures are as follows: seed Vero cells into 96-well culture plates, infect with 10^−5 Coxsackie virus of B3 (or B6) type, 24 hours later; adsorb subsequently for 2 hours, then discard the virus solution, add in the sample compounds and the positive control according to the abovementioned dilutions, set cell control wells and virus control wells simultaneously. When the cytopathic effect (CPE) of cells in the virus control wells reach 4+, observe CPE of the cells in each group. Use Reed-Muench method to calculate 50% inhibitory concentration (IC50) of the sample compounds against coxsackie virus B3 (or B6) type.

[2] = system: Coxsackie virus type B3 (COX-B3); experiment: Anti-Coxsackie virus type B3 (COX-B3) activity, CPE in Vero cells; type: cell-based; conditions: Reed-Muench
Protocol: as §1, §2, §3

IMPDH = IMPDH inhibition activity (A340, IMP substrate, NAD); type: biochemical; conditions: compound at 10 μg/mL
Protocol: Measurement of IMPDH Inhibitor Activity
In 96-well plates, use IMP as the substrate and NAD, NADH as chromogenic agents to determine the activity of the compounds described in this invention as IMPDH inhibitor. Add 2 μl of each of the tested sample solution, 20 μl enzyme extract and 30 μl IMP into a sample well in the 96-well plates; 2 μl DMSO and 30 μl IMP solution into a control well; 2 μl DMSO and 20 μl IMPDH buffer instead of the enzyme extract and 30 μl IMP solution into a blank well. Keep plates at constant 37° C. for 15 min, measure absorbance values A340 (OD1) of the solutions in various wells; subsequently, add into each well with 50 μl NAD, keep at constant 37° C. for 50 min, then measure A340 (OD2) values. Calculate IMPDH inhibition rates of samples as follows: Inhibition (%)=[(OD2−OD1)control−(OD2−OD1)Sample]/[(OD2−OD1)control−(OD2−OD1)Blank]×100%.

[3] = system: human hepatoma cell HepG2; experiment: In vitro human hepatoma cell HepG2 inhibitory activity (MTT); type: cell-based; conditions: HepG2, 48 h; for IC50: Homo sapiens
Source text: (§4) According to the progress in the studies on anticancer drugs using IMPDH as a target, the present invention measured inhibitory activities of the compounds of present invention against human hepatoma cell HepG2 and human lung adenocarcinoma cell A549, respectively, the measured results are shown in Table 5:
In Vitro Human Hepatoma Cell HepG2 Inhibitory Activity Measurement
Collect well growing tumor cells, prepare 6×10^4/ml cell suspension in RPMI-1640 or DMEM culture medium containing 10% FBS, seed in 96-well plates, 100 μl suspension each well, incubate at 37° C. under 5% CO2 atmosphere for 24 h, add the test solution (final concentration of drug: 0.625, 1.25, 2.5, 5.0, 10 μg/ml), for each concentration set three parallel holes, set positive control (cisplatin 10, 1, 0.1 μg/ml) and a blank control simultaneously. After culture for 48 h discard the supernatants, add into each well 10 μl MTT solution (5 mg/ml, prepared with RPMI-1640 medium), continue culturing for 4 It, add into each hole 100 μl acidified isopropanol cell lysate, culture overnight, measure absorbance (A) values with Bio-Tek MQX200 type microplate reader with the detection wavelength at 540 nm, and reference wavelength 450 nm. Calculate the inhibition rate as follows: inhibition rate=(Ablank−Asample)/Ablank control×100%. Use Graphpad Prism 5 statistical software to calculate IC50.

[4] = system: human lung adenocarcinoma cell A549; experiment: In vitro human lung adenocarcinoma cell A549 inhibitory activity (MTT); type: cell-based; conditions: A549, 48 h; for IC50: Homo sapiens
Source text: as §4
In Vitro Human Lung Adenocarcinoma Cell A549 Inhibitory Activity Measurement
Cell lines: human lung adenocarcinoma cell A549. Collect well growing tumor cells, prepare cell suspension with Ham's F12 culture solution containing 10% fetal calf serum medium, seed the suspension in 96-well plates, each well 100 μl suspension at 5000 cells/well, incubate at 37° C., under 5% CO2 atmosphere, 24 h later, add 2×drug solution […], each concentration in three parallel holes, set the blank control simultaneously. After culture for 48 h, add 20 μl (5 mg/ml) MTT to each well, culture 4 h, discard the supernatants. Measure absorbance (A) values using Bio-Rad 680 microplate reader at a detection wavelength of 570 nm, the survival rate (%) is calculated as follows: AsampleAblank control×100%. Use statistical software Graphpad Prism5 to calculate IC50. After primary screening of all samples, adjust the concentration gradient of the samples with IC50<100 μg/ml to do additional screenings, which are carried out with two parallel determinations.

mouse spleen cell = experiment: Mouse spleen cell proliferation inhibiting activity; type: cell-based; conditions: mouse spleen cells
Source text: The present invention also provides the results of experimental studies on the biological activity of said compounds.

| Structure (SMILES) | IC50 [1] [µg/mL] | IC50 [2] [µg/mL] | IC50 [3] [µg/mL] | IC50 [4] [µg/mL] | inhibition rate (%) 10 μg/mL (IMPDH) [%] | HepG2 IC50 [3] [µg/mL] | A549 IC50 [4] [µg/mL] | IC50 (mouse spleen cell) [µg/mL] |
| --- | --- | --- | --- | --- | --- | --- | --- | --- |
| COc1cc(NC/C=C/c2ccccc2)ccc1-c1cnco1 [Compound 62] | 1.43 (≈ 4.67 µM) | 0.63 (≈ 2.06 µM) | > 100 | 32 (≈ 105 µM) |  |  |  |  |
| COc1ccc(-c2cnco2)cc1NCc1cccs1 [Compound 21, N-(thien-2-ylmethyl)-2-methoxy-5-(oxazol-5-yl) aniline] | 3.25 (≈ 11.3 µM) | 2.47 (≈ 8.63 µM) | > 100 | 122 (≈ 427 µM) |  |  |  |  |
| COc1cc(NCc2ccco2)ccc1-c1cnco1 [Compound 41, N-(furan-2-ylmethyl)-3-methoxy-4-(oxazol-5-yl) aniline] | 1.88 (≈ 6.96 µM) | 0.63 (≈ 2.33 µM) | 40 (≈ 148 µM) | 22.8 (≈ 84.2 µM) |  |  |  |  |
| COc1ccc(CNc2ccc(-c3cnco3)c(OC)c2)cc1 [Compound 61, N-(4-methoxybenzyl)-3-methoxy-4-(oxazol-5-yl) aniline] | 1.06 (≈ 3.42 µM) | 0.64 (≈ 2.06 µM) | 36.2 (≈ 117 µM) | 29.4 (≈ 94.8 µM) | 73.7 |  |  |  |
| COc1cc(NCc2scnc2C)ccc1-c1cnco1 [Compound 54, N-(4-methylthiazol-5-ylmethyl)-3-methoxy-4-(oxazol-5-yl) aniline] | 3.18 (≈ 10.6 µM) | 1.43 (≈ 4.74 µM) | 53.3 (≈ 177 µM) | 29.5 (≈ 97.8 µM) |  |  |  |  |
| COc1cc(NCc2cccc(C)n2)ccc1-c1cnco1 [Compound 57, N-(6-methylpyridin-2-ylmethyl)-3-methoxy-4-(oxazol-5-yl) aniline] | 1.88 (≈ 6.37 µM) | 2.47 (≈ 8.36 µM) | 42.8 (≈ 145 µM) | 36.7 (≈ 124 µM) | 45.1 |  |  |  |
| N.N.[Cl][Pt][Cl] [Cisplatin, reference compound] |  |  |  |  |  | 104.1 | 263.4 |  |
| COc1cc(NCc2ccncc2)ccc1-c1cnco1 [Compound 56, N-(pyridin-4-ylmethyl)-3-methoxy-4-(oxazol-5-yl) aniline] | 4.28 (≈ 15.2 µM) | 5.75 (≈ 20.4 µM) |  |  | 37.4 |  |  |  |
| COc1cc(NCc2ccsc2)ccc1-c1cnco1 [Compound 11, N-(thien-3-ylmethyl)-3-methoxy-4-(oxazol-5-yl) aniline] | 1.33 (≈ 4.64 µM) | 0.44 (≈ 1.54 µM) | 42.1 (≈ 147 µM) | 29.7 (≈ 104 µM) | 69.6 |  |  |  |
| COc1cc(NCc2csc3ccccc23)ccc1-c1cnco1 [Compound 20, N-(benzothien-3-ylmethyl)-3-methoxy-4-(oxazol-5-yl) aniline] | 0.82 (≈ 2.44 µM) | 0.64 (≈ 1.9 µM) | 2.88 (≈ 8.57 µM) | 11.6 (≈ 34.5 µM) | 47.7 |  |  |  |
| COc1cc(NCc2c[nH]c3ccccc23)ccc1-c1cnco1 [Compound 53, N-(1H-indol-3-ylmethyl)-3-methoxy-4-(oxazol-5-yl) aniline] | 7.41 (≈ 23.2 µM) | > 2.47 | 22.5 (≈ 70.6 µM) | 38.6 (≈ 121 µM) | 39.2 |  |  |  |
| COc1ccccc1/C=C/CNc1ccc(-c2cnco2)c(OC)c1 [Compound 63] | 2.47 (≈ 7.34 µM) | 0.47 (≈ 1.4 µM) | 19.4 (≈ 57.5 µM) | 14.1 (≈ 42 µM) |  |  |  | 2.22 (≈ 6.6 µM) |
| COc1cc(NCc2cncs2)ccc1-c1cnco1 [Compound 55, N-(thiazol-5-ylmethyl)-3-methoxy-4-(oxazol-5-yl) aniline] | 3.25 (≈ 11.3 µM) | 1.88 (≈ 6.54 µM) | 42.1 (≈ 147 µM) | 31.9 (≈ 111 µM) |  |  |  |  |
| COc1cc(NCc2cc3ccccc3s2)ccc1-c1cnco1 [Compound 10, N-(benzothien-2-ylmethyl)-3-methoxy-4-(oxazol-5-yl) aniline] | 0.36 (≈ 1.07 µM) | 0.27 (≈ 0.803 µM) | 21.7 (≈ 64.5 µM) | 26.8 (≈ 79.5 µM) |  |  |  |  |
| COc1cc(NCc2ccc(-c3ccccc3)s2)ccc1-c1cnco1 [Compound 6, N-(5-phenylthien-2-ylmethyl)-3-methoxy-4-(oxazol-5-yl) aniline] | 0.27 (≈ 0.745 µM) | 0.47 (≈ 1.3 µM) | 31.8 (≈ 87.6 µM) | 16.9 (≈ 46.6 µM) |  |  |  |  |
| COc1ccc(-c2cnco2)cc1NCc1ccc(C)s1 [Compound 22, N-(5-methylthien-2-ylmethyl)-2-methoxy-5-(oxazol-5-yl) aniline] | 3.83 (≈ 12.8 µM) | 0.82 (≈ 2.73 µM) | 9.9 (≈ 33 µM) | 26.2 (≈ 87.2 µM) |  |  |  |  |

More lines, main results first:

| IC50 [1] [µg/mL] | IC50 [2] [µg/mL] | IC50 [3] [µg/mL] | IC50 [4] [µg/mL] | Structure (SMILES) | inhibition rate (%) 10 μg/mL (IMPDH) [%] | HepG2 IC50 [3] [µg/mL] | A549 IC50 [4] [µg/mL] | IC50 (mouse spleen cell) [µg/mL] |
| --- | --- | --- | --- | --- | --- | --- | --- | --- |
| 5.75 (≈ 18.9 µM) | 1.23 (≈ 4.04 µM) |  |  | COc1cc(/N=C/C=C/c2ccccc2)ccc1-c1cnco1 [Compound 65, N-(phenylpropen-1-ylidene)-3-methoxy-4-(oxazol-5-yl)-aniline] | 32.0 |  |  |  |
| 0.63 (≈ 2.1 µM) | 0.23 (≈ 0.766 µM) | 7.95 (≈ 26.5 µM) | 18.6 (≈ 61.9 µM) | COc1cc(NCc2ccc(C)s2)ccc1-c1cnco1 [Compound 2, N-(5-methylthien-2-ylmethyl)-3-methoxy-4-(oxazol-5-yl) aniline] | 68.7 |  |  |  |
| 1.43 (≈ 4.55 µM) | 0.35 (≈ 1.11 µM) | 20.9 (≈ 66.5 µM) | 10.7 (≈ 34.2 µM) | CCc1ccc(CNc2ccc(-c3cnco3)c(OC)c2)s1 [Compound 3, N-(5-ethylthien-2-ylmethyl)-3-methoxy-4-(oxazol-5-yl) aniline] |  |  |  |  |
| 0.44 (≈ 1.2 µM) | 0.47 (≈ 1.29 µM) | 83.4 (≈ 228 µM) | 16.5 (≈ 45.2 µM) | COc1cc(NCc2ccc(Br)s2)ccc1-c1cnco1 [Compound 5, N-(5-bromothien-2-ylmethyl)-3-methoxy-4-(oxazol-5-yl) aniline] | 58.9 |  |  |  |
| 1.93 (≈ 6.79 µM) | 1.43 (≈ 5.03 µM) | 31.3 (≈ 110 µM) | 20.7 (≈ 72.8 µM) | COc1cc(NCc2ccc(C)o2)ccc1-c1cnco1 [Compound 42, N-(5-methylfuran-2-ylmethyl)-3-methoxy-4-(oxazol-5-yl) aniline] | 60.7 |  |  |  |
| 18.5 (≈ 56 µM) | > 66.7 | > 100 | > 100 | COc1cc(NCc2ccc(C(=O)O)s2)ccc1-c1cnco1 [Compound 7, 5-(3-methoxy-4-oxazol-5-yl-anilinomethyl)-thien-2-yl carboxylic acid] |  |  |  |  |
| 1.53 (≈ 4.88 µM) | 0.82 (≈ 2.62 µM) | 0.897 (≈ 2.86 µM) | 4.84 (≈ 15.4 µM) | COc1cc(/N=C/c2ccc([N+](=O)[O-])o2)ccc1-c1cnco1 [Compound 49, N-(5-nitrofuran-2-methylidene)-3-methoxy-4-(oxazol-5-yl) aniline] |  |  |  |  |
| 0.44 (≈ 1.54 µM) | 0.44 (≈ 1.54 µM) | 0.95 (≈ 3.32 µM) |  | COc1cc(NCc2cccs2)ccc1-c1cnco1 [Compound 1, N-(thien-2-ylmethyl)-3-methoxy-4-(oxazol-5-yl) aniline] | 65.7 |  |  |  |
